Results as given in ChEMBL document CHEMBL1148726, “Allosteric inhibitors of hepatitis C polymerase: discovery of potent and orally bioavailable carbon-linked dihydropyrones” (J Med Chem, 2007).
One block for each compound: values may come before it. Active and inactive are the calls of the source. The rule behind the calls is not given here.

What was measured:
[1] = Inhibition of HCV 1b NS5B delta21 RNA dependent RNA polymerase by enzymatic assay; design: species or system Hepacivirus hominis
[2] = Cytotoxic against Huh7 cells; format: cell-based, Huh-7; settings: human
[3] = tested on: Hepatitis C virus; assay: Antiviral activity against Hepatitis C virus infected Huh7 cells; format: functional, organism-based, Hepacivirus hominis, Huh-7
[4] = Ratio of EC50 for HCV in Huh7 cells to IC50 for HCV NS5 B delta 21 polymerase; format: functional, Hepacivirus hominis, Huh-7
[5] = Total plasma clearance in rat at 25 mg/kg, po or 5 mg/kg, iv; format: ADME, organism-based
[6] = (§1) Volume of distribution in rat at 25 mg/kg, po or 5 mg/kg, iv; format: ADME, organism-based; settings: in vivo, read-out: Vdss
[7] = (§2) Half life in rat at 25 mg/kg, po or 5 mg/kg, iv; format: ADME, organism-based; settings: in vivo
[8] = Fraction absorption in rat at 25 mg/kg, po; format: ADME, organism-based; design: dose 25 mg/kg, route oral; settings: in vivo
[9] = Bioavailability in rat at 25 mg/kg, po; format: ADME, organism-based; settings: in vivo
[10] = Permeability from apical to basolateral side of the Caco-2 cell membrane; format: ADME, cell-based; settings: human
[11] = Permeability from basolateral to apical side of the Caco-2 cell membrane; format: ADME, cell-based; settings: human
[12] = Fraction absorption in rat at 10 mg/kg, po; format: ADME, organism-based; design: dose 10 mg/kg, route oral; settings: in vivo
[13] = (§3) Bioavailability in rat at 10 mg/kg, po; format: ADME, organism-based; settings: in vivo
[14] = Total plasma clearance in rat at 10 mg/kg, po or 2 mg/kg, iv; format: ADME, organism-based
[15] = Volume of distribution in rat at 10 mg/kg, po or 2 mg/kg, iv; format: ADME, organism-based; settings: in vivo, read-out: Vdss
[16] = Half life in rat at 10 mg/kg, po or 2 mg/kg, iv; format: ADME, organism-based; settings: in vivo
[17] = tested on: Rattus norvegicus; assay: as §1; format: ADME, organism-based; settings: in vivo
[18] = tested on: Rattus norvegicus; assay: as §2; format: ADME, organism-based; settings: in vivo
[19] = tested on: Hepacivirus hominis; assay: (§4) Inhibition of HCV 1a NS5B delta21 RNA dependent RNA polymerase by enzymatic assay
[20] = tested on: Rattus norvegicus; assay: as §3; format: ADME, organism-based; settings: in vivo
[21] = as §4; design: species or system Hepacivirus hominis

SMILES: Cc1cc(C)n2nc(CC3=C(O)CC(CCc4ccc(C(C)(C)C#N)c(Cl)c4)(C4CCCC4)OC3=O)nc2n1 (stereo not given)
IC50 [1]: 2 nM
CC50 ([2]; Huh7 cells): > 32000 nM

SMILES: COc1ccc(CCC2(C3CCCC3)CC(O)=C(Sc3nc4nc(C)cc(C)n4n3)C(=O)O2)cc1Cl (stereo not given)
IC50 [1]: 36 nM
EC50 ([3]; Hepatitis C virus, Huh-7): 3250 nM
Ratio [4]: 90
CC50 ([2]; Huh7 cells): > 100000 nM
clearance [5]: 14.8 mL/min/kg
Vd [6]: 2 L/kg
half-life [7]: 90 min
Fa [8]: 2.5%
bioavailability [9]: 2%
Papp A→B [10]: 3 ×10⁻⁶ cm/s
Papp B→A [11]: 2.3 ×10⁻⁶ cm/s

SMILES: Cc1cc(C)n2nc(CC3=C(O)CC(CCc4ccc(C(C)(C)NS(C)(=O)=O)c(F)c4)(C4CCCC4)OC3=O)nc2n1 (stereo not given)
IC50 [1]: 17 nM
EC50 ([3]; Hepatitis C virus, Huh-7): 110 nM
CC50 ([2]; Huh7 cells): > 32000 nM

SMILES: Cc1cc(C)n2nc(CC3=C(O)CC(CCc4ccc(S(C)(=O)=O)c(Cl)c4)(C4CCCC4)OC3=O)nc2n1 (stereo not given)
IC50 [1]: 60 nM
EC50 ([3]; Hepatitis C virus, Huh-7): 610 nM
CC50 ([2]; Huh7 cells): > 32000 nM

SMILES: COc1ccc(CCC2(C3CCCC3)CC(O)=C(Cc3nc4nc(C)cc(C)n4n3)C(=O)O2)cc1Cl (stereo not given)
IC50 [1]: 20 nM
EC50 ([3]; Hepatitis C virus, Huh-7): 330 nM
Ratio [4]: 17
CC50 ([2]; Huh7 cells): > 32000 nM
Fa [12]: 48%
bioavailability [13]: 42%
Papp A→B [10]: 10 ×10⁻⁶ cm/s
clearance [14]: 8.3 mL/min/kg
Vd [15]: 0.3 L/kg
Papp B→A [11]: 6.8 ×10⁻⁶ cm/s
half-life [16]: 30 min

SMILES: COc1ccc(CCC2(C3CCCC3)CC(O)=C(Cc3nc4nc(C)cc(C)n4n3)C(=O)O2)cc1C (stereo not given)
IC50 [1]: 54 nM
EC50 ([3]; Hepatitis C virus, Huh-7): 1200 nM
CC50 ([2]; Huh7 cells): > 32000 nM

SMILES: Cc1cc(C)n2nc(CC3=C(O)CC(CCc4ccc(C(C)(C)C#N)c(F)c4)(C4CCCC4)OC3=O)nc2n1 (single isomer, unassigned; enantiomer 2) [listing 2 of 2 here]
Activity [19]: inactive

SMILES: Cc1cc(C)n2nc(CC3=C(O)CC(CCc4ccc(C(C)(C)C#N)c(F)c4)(C4CCCC4)OC3=O)nc2n1 (single isomer, unassigned; enantiomer 1)
CC50 ([2]; huh-7): 320000 nM
clearance [5]: 3.7 mL/min/kg
Vd [6]: 0.3 L/kg
half-life [7]: 52.8 min
F [20]: 31%
IC50 [21]: 70 nM

SMILES: COc1ccc(CCC2(C3CCCC3)CC(O)=C(Cc3nc4nc(C)cc(C)n4n3)C(=O)O2)cc1F (stereo not given)
IC50 [1]: 15 nM
EC50 ([3]; Hepatitis C virus, Huh-7): 400 nM
CC50 ([2]; Huh7 cells): > 32000 nM

More lines, in order of falling IC50 [1], values ahead:

IC50 [1]: 930 nM
SMILES: Cc1cc(SC2=C(O)OC(CCc3ccc(O)cc3)(C3CCCC3)CC2=O)c(C(C)(C)C)cc1N (stereo not given)

IC50 [1]: 4 nM
EC50 ([3]; Hepatitis C virus, Huh-7): 320 nM
SMILES: CCOc1ccc(CCC2(C3CCCC3)CC(O)=C(Cc3nc4nc(C)cc(C)n4n3)C(=O)O2)cc1Cl (stereo not given)
CC50 ([2]; Huh7 cells): > 32000 nM

IC50 [1]: 3 nM
EC50 ([3]; huh-7): 30 nM
SMILES: Cc1cc(C)n2nc(CC3=C(O)CC(CCc4ccc(C(C)(C)C#N)c(F)c4)(C4CCCC4)OC3=O)nc2n1 (stereo in doubt; 22)
CC50 ([2]; huh-7): > 32000 nM

IC50 [1]: 1 nM
EC50 ([3]; huh-7): 32 nM
Vdss [17]: 0.17 L/kg
t1/2 [18]: 28.2 min
bioavailability [13]: 37%
SMILES: Cc1cc(C)n2nc(CC3=C(O)CC(CCc4ccc(C(C)(C)C#N)c(F)c4)(C4CCCC4)OC3=O)nc2n1 (single isomer, unassigned; enantiomer 2) [listing 1 of 2 here]
